Reference: EP3325480B1, “5-SUBSTITUTED-7-[4-(SUBSTITUTED) BENZYL]AMINO-3-ISOPROPYLPYRAZOLO (4,3-D) PYRIMIDINES AS MEDICAMENTS” (Ustav experimentalni botaniky AV CR, v.v.i., priority 2015, dated 2017)

Legend:
neutrophils [1] = experiment: Measurement of neutrophil apoptosis (Annexin V FITC / propidium iodide, flow cytometry); format: cell-based; conditions: 10 nM, 8 h, isolated human neutrophils, Annexin V positive / PI negative cells taken as apoptotic
Excerpt: The neutrophils were isolated from the peripheral blood of healthy human donors as described previously (Afford et al 1992). Briefly, blood was collected into tubes containing EDTA followed by usage of 2% dextran solution for sedimentation of erythrocytes. The neutrophils were then isolated from leukocyte layer using a discontinuous Percoll density gradient centrifugation (Sigma- Aldrich, Poole, UK) and resuspended in RPMI 1640 medium (Sigma- Aldrich) supplemented with 10% heat-inactivated fetal bovine serum (Sera Laboratories International, Bolney, UK), 2 mM glutamine, 100 U/ml penicillin and 100 µg/ml streptomycin (Sigma-Aldrich). The purity of isolated neutrophils was assessed by Giemsa staining (Diff-Quick, Baxter Healthcare, UK) and light microscopy and was routinely greater than 97%. The neutrophils were then cultured in the presence of novel compounds (single concentration of 10 nM, or several increasing concentrations ranging from 10 nM to 1 µM) and other stimulating factors for 8 h.
For evaluation of early apoptosis, neutrophils were double stained with anti-Annexin V FITC-conjugated antibody (BD Pharmingen) binding extracellular phosphatidylserine and propidium iodide detecting late apoptotic and necrotic cells. After appropriate treatment, cells were washed with PBS and then resuspended in 100 µl of Annexin V buffer (10 mM HEPES, pH 7.4; 140 mM NaCl; 2.5 mM CaCl2). 1 µl of anti-Annexin V FITC-conjugated antibody was added and cells were then incubated at room temperature for 10 minutes followed by addition of propidium iodide at final concentration of 5 µg/ml. Fluorescence was analyzed by flow cytometry (BD Accuri C6 Flow Cytometer, Accuri Cytometers Inc.) with Annexin V positive / PI negative cells taken as apoptotic.

neutrophils [2] = experiment: Superoxide generation assay (luminol-based chemiluminescent assay, fMLP stimulus); format: cell-based; conditions: isolated human neutrophils, GM-CSF present, compound 1 h, fMLP 2.5 µM, luminol 100 µM (Figure 2)
Protocol: Isolated human neutrophils were incubated in the presence of prosurvival factor GM-CSF with or without the compound at indicated concentrations for 1 h.
Levels of reactive oxygen species (ROS) generated by neutrophils were measured using a luminol-based chemiluminescent assay (Gyllenhammar 1987). After treatment, neutrophils were resuspended in Hank's Balanced Salt Solution (HBSS) containing calcium and magnesium (Gibco) and transferred to opaque 96 well plates (Greiner Bio-One GmbH). Luminol was then added to each well at final concentration of 100 µM followed by a measuring of chemiluminescence in response to the stimulus fMLP (2.5 µM) at 1 min intervals for 30 min by means of a luminometer (Centro LB 960, Berthold Technologies, Bad Wildbad, Germany).

Compound | % of apoptotic cells (neutrophils [1]) [%] | neutrophil oxygen radical production induced by fMLP (neutrophils [2])
CC(CCO)Nc1nc(NCc2ccc(-c3cccs3)cc2)c2[nH]nc(C(C)C)c2n1 (racemic) [compound 44] | 38 | 
CC(C)c1n[nH]c2c(Cl)nc(S(C)(=O)=O)nc12 [compound 1, 7-Chloro-3-isopropyl-5-methylsulfonyl-1H-pyrazolo[4,3-d]pyrimidine] | 32 | 
CC(C)c1n[nH]c2c(NCc3ccc(-c4ccco4)cc3)nc(S(C)(=O)=O)nc12 [compound 2, 3-Isopropyl-5-methylsulfonyl-7-[4-(furan-2-yl)benzyl]amino-1H-pyrazolo[4,3-d]pyrimidine] | 41 | 
CC(C)c1n[nH]c2c(NCc3ccc(-c4cccs4)cc3)nc(S(C)(=O)=O)nc12 [compound 3, 3-Isopropyl-5-methylsulfonyl-7-[4-(thiophen-2-yl)benzyl]amino-1H-pyrazolo[4,3-d]pyrimidine] | 58 | 
CC(C)c1n[nH]c2c(NCc3ccc(-n4cccn4)cc3)nc(S(C)(=O)=O)nc12 [compound 6, 3-Isopropyl-5-methylsulfonyl-7-[4-(1H-pyrazol-1-yl)benzyl]amino-1H-pyrazolo[4,3-d]pyrimidine] | 36 | 
CC(C)c1n[nH]c2c(NCc3ccc(-c4ccco4)cc3)nc(NCCO)nc12 [compound 7] | 47 | 
CC(C)c1n[nH]c2c(NCc3ccc(-c4ccco4)cc3)nc(NCC(O)CN)nc12 (stereo not shown) [compound 15, 3-Isopropyl-5-(3-amino-2-hydroxypropyl)amino-7-[4-(furan-2-yl)benzyl]amino-1H-pyrazolo[4,3-d]pyrimidine] | 52 | inhibits
CC(C)c1n[nH]c2c(NCc3ccc(-c4ccco4)cc3)nc(NCCCCCCN)nc12 [compound 30] | 39 | 
CC(C)c1n[nH]c2c(NCc3ccc(-c4ccco4)cc3)nc(NCC(C)(C)O)nc12 [compound 31, 3-Isopropyl-5-(2-hydroxy-2-methylpropyl)amino-7-[4-(furan-2-yl)benzyl]amino-1H-pyrazolo[4,3-d]pyrimidine] | 50 | 
CC(C)c1n[nH]c2c(NCc3ccc(-c4cccs4)cc3)nc(NCC(C)(C)O)nc12 [compound 32, 3-Isopropyl-5-(2-hydroxy-2-methylpropyl)amino-7-[4-(thiophen-2-yl)benzyl]amino-1H-pyrazolo[4,3-d]pyrimidine] | 48 | 
CC(C)c1n[nH]c2c(NCc3ccc(-c4cccs4)cc3)nc(NCCC(C)(C)O)nc12 [compound 33] | 36 | 
CC(C)c1n[nH]c2c(NCc3ccc(-c4cccs4)cc3)nc(NCC(O)CO)nc12 (stereo not shown) [compound 34] | 52 | 
CC(C)c1n[nH]c2c(NCc3ccc(-c4cccs4)cc3)nc(NC[C@H](C)O)nc12 [compound 42] | 57 | 
CC(C)c1n[nH]c2c(NCc3ccc(-c4cccs4)cc3)nc(N[C@H](C)CCO)nc12 [compound 45] | 33 | 
CC(C)c1n[nH]c2c(NCc3ccc(-n4cccn4)cc3)nc(NCCCCN)nc12 [compound 58] | 44 | 
CC(C)c1n[nH]c2c(NCc3ccc(-n4cccn4)cc3)nc(NCCCCCN)nc12 [compound 59] | 49 | 
CC(C)c1n[nH]c2c(NCc3ccc(-n4cccn4)cc3)nc(NCCCCCCN)nc12 [compound 60] | 60 | 
CC(C)c1n[nH]c2c(NCc3ccc(-n4cccn4)cc3)nc(NCC(O)CN)nc12 (stereo not shown) [compound 61, 3-Isopropyl-5-(3-amino-2-hydroxypropyl)amino-7-[4-(1H-pyrazol-1-yl)benzyl]amino-1H-pyrazolo[4,3-d]pyrimidine] | 40 | 
CCN(CC)CCNc1nc(NCc2ccc(N3CCCC3)cc2)c2[nH]nc(C(C)C)c2n1 [compound 63] | 39 | 
CCN(CC)C(C)CCNc1nc(NCc2ccc(N3CCCC3)cc2)c2[nH]nc(C(C)C)c2n1 (stereo not shown) [compound 65] | 56 | 
CC(C)c1n[nH]c2c(NCc3ccc(N4CCCC4)cc3)nc(NCC(C)(C)O)nc12 [compound 66] | 34 | 
